From patent publication US11485714B2, “Hydroxyethylamine-based piperazine compounds, and methods of producing and using the same for treating disease” (National Institute of Immunology, priority 2020, dated 2022)
Read-outs that look alike come from different tables or passages of the source.

What was measured:
Format in all cases: cell-based
[1] = test system: P. falciparum CQ-sensitive (Pf3D7); assay: SYBR Green I assay, asynchronous cultures, CQ-sensitive clone; conditions: Plasmodium falciparum, read-out: Pf3D7 IC50, nM (±SD)
Experimental: Initially, antimalarial activity of Compound I was assessed on asynchronous cultures of P. falciparum sensitive (Pf3D7) clone using the SYBR Green assay. […] DMSO was used as a vehicle control, CQ (Chloroquine), DOX (Doxycycline) and DHA (Dihydroartemisinin).

[2] = test system: P. falciparum CQ-resistant (PfDd2); assay: SYBR Green I assay, asynchronous cultures, CQ-resistant clone; conditions: Plasmodium falciparum, read-out: PfDd2 IC50, nM (±SD)
[3] = test system: Field isolates from Kenya (P. falciparum infected blood); assay: Screening against freshly collected field isolates; conditions: Plasmodium falciparum, read-out: Field isolates from Kenya IC50, nM (±SD)
[4] = asynchronous cultures, 37° C., 72 hours, SYBR Green I

SMILES	IC50 ([1]; 72 h) [nM]	IC50 ([2]; 72 h) [nM]	IC50 [3] [nM]	IC50 [1, 4] [nM]	IC50 [2, 4] [nM]	IC50 ([3]; Table 1) [nM]
CCN(CC)CCCC(C)Nc1ccnc2cc(Cl)ccc12 (stereo not drawn) [Chloroquine, reference compound]	32.3	137	75.2			
C[C@H]1[C@@H](O)O[C@@H]2O[C@@]3(C)CC[C@H]4[C@H](C)CC[C@@H]1[C@@]24OO3 [Dihydroartemisinin, reference compound]				27	46	7.37
